Results from patent US9668479B2, “Modulating germination of Paenibacillus larvae” (THE BOARD OF REGENTS OF THE NEVADA SYSTEM OF HIGHER …, priority 2013, dated 2017).

How the values were obtained:
P. larvae spores [1] = experiment: Growth from P. larvae spores in medium containing 5-chloroindole; assay type: cell-based, Paenibacillus larvae
Description: FIGS. 7A-7D are graphs plotting the inhibition activity of 5-chloroindole on P. larvae spores. P. larvae spores were grown in medium containing different concentrations of 5-chloroindole. Growth was monitored over a 24 hour period; plots are shown for 6 hours (FIG. 7A), 12 hours (FIG. 7B), 18 hours (FIG. 7C), and 24 hours (FIG. 7D). Asterisks denote significant differences from the growth of medium control (Analysis of Variance, Log-rank test, p<0.05).
P. larvae spores were grown in medium containing different concentrations of DMSO, complex medium (MYPGP), or 0.5 to 2 mM 5-chloroindole, and cellular growth was monitored over a 24 hour period.

P. larvae cells = experiment: Growth of P. larvae cells in medium containing 5-chloroindole; assay type: cell-based, Paenibacillus larvae; details: 1, 1.5 and 2 mM; all time points (6, 12, 18, 24 hours); p<0.05
Description: FIGS. 6A-6D are graphs plotting the inhibition activity of 5-chloroindole on P. larvae cells. P. larvae cells were grown in medium containing different concentrations of 5-chloroindole, and cellular growth was monitored over a 24 hour period. Graphs are shown for 6 hours (FIG. 6A), 12 hours (FIG. 6B), 18 hours (FIG. 6C), and 24 hours (FIG. 6D). Asterisks denote significant differences from the growth of medium control (Analysis of Variance, Log-rank test, p<0.05).
5-Chloroindole was then tested in vitro, using P. larvae cells or spores. P. larvae cells were grown in medium containing different concentrations of DMSO, complex medium (MYPGP), or 0.5 to 2 mM 5-chloroindole, and cellular growth was monitored over a 24 hour period.

[2] = system: honey bee larvae contacted with P. larvae spores; experiment: Survival of honey bee larvae fed diet with indole analogs and P. larvae spores; assay type: in vivo
Description: First instar honey bee larvae were obtained from two colonies headed by naturally mated queens (Honey Bee Genetics, Vacaville Calif.). Queens were trapped on empty frames within a cage constructed with queen excluder. Worker bees can fit through the excluder but the queen cannot exit the cage. The frame was placed within the brood chamber to stimulate egg laying by the queen overnight. Eggs were incubated in the hive for 4 days to allow newly hatched larvae to be fed by nurse bees. First instar honey bee larvae were brought into the laboratory and stored in a 35° C. 85% relative humidity chamber before grafting.
Sterile six well plates with a well volume of 17.0 ml were filled with 2.5 ml of pre-warmed artificial worker jelly. Honey bee larvae were transferred into each well using the thin tongue made of flexible plastic from a Chinese grafting tool. The plastic grafting tool was decontaminated with 70% ethanol throughout usage. Grafting was performed in the sterile environment of a honey bee laboratory, and honey bee larvae were then transferred to a bacterial spore laboratory for control and spore exposure treatments.
Artificial worker jelly was prepared using a lyophilized royal jelly, D-glucose, D-fructose, yeast extract, and autoclaved double distilled water. Ingredients minus lyophilized royal jelly were dissolved in autoclaved double distilled water. Lyophilized royal jelly was added to this sugar-yeast extract solution and mixed thoroughly with a vortex mixer. Artificial diet was prepared an hour prior to use for larval rearing. To reduce the development of worker-queen hybrids because of nutrition, the composition and amounts of artificial worker jelly were controlled in every larval stage.
Honey bee larvae were incubated in an air tight plastic container placed inside an incubator. The desired relative humidity (95%) and temperature (35° C.) was verified with an iButton data logger (Maxim Integrated; San Jose, Calif.). The appropriate relative humidity was obtained by placing a solution of 20% glycerol by weight. The plastic containers were was decontaminated throughout usage with detergent, 70% ethanol, and treated with an ultraviolet lamp overnight.
Feeding of diets was performed daily in different amounts according to Table 2. The amount of diet consumed by larvae was assumed based on published literature. A micropipette was used to place a food drop next to the mouth of the larvae. Drowning was avoided by maintaining the appropriate humidity and water content of diet. Forty first and second instar larvae were placed into one well of a six well plate. Third instar larvae were transferred individually to 48 well plates filled with fresh food.
Larval survival was determined daily by observing signs of respiration, disease symptoms, and other abnormalities with a stereo microscope. The number of dead larvae was recorded, and surviving larvae were fed fresh food. The start of pupation was indicated by the appearance of uric acid crystals and light yellow excretions in the remaining food.
The larval survival data was analyzed using the LogRank test in SigmaPlot.

P. larvae spores [3] = experiment: Inhibition of P. larvae spore germination, IC50 titration of indole analogs (Example 2); assay type: cell-based, Paenibacillus larvae subsp. pulvifaciens strain ATCC 49843; details: Paenibacillus larvae; Table 2; saturating uric acid/L-tyrosine concentrations; read-out: IC50
Description: After a 15 minute incubation, the spores were treated with 3 mM L-tyrosine-3 mM uric acid. The germination rate was set to 100% for P. larvae spores germinated in the absence of inhibitor. Germination rates for other conditions were divided by the uninhibited maximum germination rate obtained with 3 mM L-tyrosine-3 mM uric acid, and are reported as percent germination. Percent germination was plotted against the inhibitor concentrations.

Clc1ccc2[nH]ccc2c1 [5-chloroindole]
effect on growth from P. larvae spores vs medium control, 6 hours (P. larvae spores [1]; 0.5 to 2 mM, 6 hours): no significant effect | effect on growth from P. larvae spores vs medium control, 18 and 24 hours (P. larvae spores [1]; all concentrations (0.5 to 2 mM), 18 and 24 hours, p<0.05): significantly inhibited | inhibition of P. larvae cell growth vs medium control (P. larvae cells): significantly inhibited | concentration dependence of increase in larval survival ([2]; 0.125 mM to 1 mM in larval diet (wj) plus P. larvae spores, p<0.001): directly correlated to its concentration | ranking of effect on larval survival among analogs ([2]; 0.5 mM in larval diet (wj) plus P. larvae spores): greatest effect | survival of honey bee larvae vs P. larvae spores alone ([2]; 0.5 mM in larval diet (wj) plus P. larvae spores, 7-day development, p<0.002): increased survival | IC50 (P. larvae spores [3]): 30 ± 10 µM
